Experimental findings from patent US11667643B2, “RIP1K inhibitors” (priority 2020, dated 2023) are described below.

In one assay the target is RIPK1 (Homo sapiens (Human), UniProt Q13546). Kind of assay: biochemical. It is filed as biochemical. The note with it: RIPK1 enzyme 31 ng/well, 30° C. for 30 minutes, luminescence; read-out: RIPK1 ADP-Glo Kinase (IC50). As for the experimental part:
In this example, compounds of the disclosure were evaluated using a biochemical assay using the ADP-Glo™ technology.
ADP-Glo™ (Promega, Madison, Wis., USA) reagents were thawed at ambient temperature. Kinase Detection Reagent was prepared by mixing kinase detection buffer with the lyophilized kinase detection substrate.
A […] stock volume of 5× Reaction Kinase Buffer was made by mixing 1000 μl of 1M MgCl2, 500 μl of 1M Tris-HCL pH7.4, 0.5 mg/ml (25 mg) of BSA, and 3475 μl of distilled H2O. A 3 ml 2× working stock volume of Reaction Kinase Buffer was made containing a final concentration of 100 μM DTT and 4 mM MnCl2.
Components of RIPK1 enzyme (Rigel Pharmaceuticals, South San Francisco, Calif., USA) were thawed on ice. Diluted RIPK1 was prepared in 1× Kinase Reaction Buffer (diluted from 2× buffer) to 31 ng/well.
1.0 ul of diluted compound was added to a 384 well plate in duplicate. […] The final reaction volume was 5.0 μl. The plate was quickly centrifuged and the reaction was incubated at 30° C. for 30 minutes. Adding 5 μl of ADP-Glo™ terminated the reaction. The plate was quickly centrifuged and the reaction was incubated at room temperature for 40 minutes. Kinase Detection Reagent was then added and incubated at room temperature for 30 minutes. The relative light unit (RLU) of kinase reaction was determined by luminescent (Luminescence 0.1 s) using a Wallac Victor2 Luminometer (PerkinElmer, Waltham, Mass., USA).

Another assay has as its system L929 cells. The experiment in a line: L929 cell necroptosis assay (TNFa + zVAD, CellTiter-Glo recovery), functional murine RIP1 assay. Type of assay: cell-based. As for the experimental part:
(§1) In this example, U937 and L929 cells were exposed to compounds of the present disclosure and a cell necroptosis assay was conducted to evaluate compound activity in functional human RIP1 and murine RIP1 assays.
(§2) U937 and L929 cells were obtained from the American Type Culture Collection (Manassa, Va., USA). Both cells were maintained in logarithmic growth phase in complete RPMI 1640 media (Sigma, ST Louis, Mo., USA) supplemented with 10% fetal bovine serum (Sigma, ST Louis, Mo., USA) at 37° C. with 5% CO2. For necroptosis assay, L929 cells were plated for 18 h in 100 μL/well medium at 10K cells/well in Costar 96-well black clear-bottom plates (Fisher Scientific, Hampton, N.H., USA); U937 cells were plated on the day of the assay in 50 μL/well medium containing 60 uM zVAD-fmk (Lonza, Basel, Switzerland) at 50K cells/well. Medium from L929 cells were removed from the 96-well plates and replaced with 50 μL/well new medium containing 40 uM zVAD-fmk. Each compound of the present disclosure evaluated in this example was serially diluted in DMSO from 2.5 mM in 4-fold dilutions, and then diluted 1:125 in complete medium. 50 μL/well 2× of the compound was then added to the cells in the plates. The cells were pre-incubated with the compound for 1 hour at 37° C. with 5% CO2 and before addition of 10 μL/well 11×TNFa (Peprotech, Rocky Hill, N.J., USA) to give a final concentration of 2 ng/mL for TNFa. The relative amount of necroptosis cells was determined by luminescent using a Wallac Victor2 Luminometer (PerkinElmer, Waltham, Mass., USA) and a CellTiter-Glo® Luminescent Cell Viability Reagent Assay (Promega, Madison, Wis., USA) added per manufacturer instructions after 18 hours of TNFa stimulation at 37° C. with 5% CO2. This example establishes that embodiments of the compounds described herein have unexpectedly potent activity against human RIP1 and murine RIP1, which allows their assessment in in vivo mouse models of disease.
In general terms: ATP-based viability assays read luminescence as a measure of living cells.

Another assay concerns U937 cells. The experiment in a line: U937 cell necroptosis assay (TNFa + zVAD, CellTiter-Glo recovery), functional human RIP1 assay. It is filed as cell-based. As for the experimental part:
as §1, §2

Setting [1] is: Mus musculus, L929, 18 h, read-out: L929-CTG-recovery, L929, TNFa + zVAD (IC50), L929 cells, zVAD-fmk, TNFa 2 ng/mL, 18 hours, CellTiter-Glo.
The mark [2] stands for this setting: Homo sapiens, U-937, 18 h, read-out: U937 Zvad TNF CTG Recovery, U937, TNFa + zVAD (IC50), U937 cells, zVAD-fmk, TNFa 2 ng/mL, 18 hours, CellTiter-Glo.
Where [3] appears, read: read-out: L929-CTG-recovery, L929, TNFa + zVAD (IC50), L929 cells, zVAD-fmk, TNFa 2 ng/mL, 18 hours, CellTiter-Glo.
The mark [4] stands for this setting: read-out: U937 Zvad TNF CTG Recovery, U937, TNFa + zVAD (IC50), U937 cells, zVAD-fmk, TNFa 2 ng/mL, 18 hours, CellTiter-Glo.

Where two headings read alike, the source gives them in different places.

Sequence of RIPK1 (Q13546 whole entry, species assumed): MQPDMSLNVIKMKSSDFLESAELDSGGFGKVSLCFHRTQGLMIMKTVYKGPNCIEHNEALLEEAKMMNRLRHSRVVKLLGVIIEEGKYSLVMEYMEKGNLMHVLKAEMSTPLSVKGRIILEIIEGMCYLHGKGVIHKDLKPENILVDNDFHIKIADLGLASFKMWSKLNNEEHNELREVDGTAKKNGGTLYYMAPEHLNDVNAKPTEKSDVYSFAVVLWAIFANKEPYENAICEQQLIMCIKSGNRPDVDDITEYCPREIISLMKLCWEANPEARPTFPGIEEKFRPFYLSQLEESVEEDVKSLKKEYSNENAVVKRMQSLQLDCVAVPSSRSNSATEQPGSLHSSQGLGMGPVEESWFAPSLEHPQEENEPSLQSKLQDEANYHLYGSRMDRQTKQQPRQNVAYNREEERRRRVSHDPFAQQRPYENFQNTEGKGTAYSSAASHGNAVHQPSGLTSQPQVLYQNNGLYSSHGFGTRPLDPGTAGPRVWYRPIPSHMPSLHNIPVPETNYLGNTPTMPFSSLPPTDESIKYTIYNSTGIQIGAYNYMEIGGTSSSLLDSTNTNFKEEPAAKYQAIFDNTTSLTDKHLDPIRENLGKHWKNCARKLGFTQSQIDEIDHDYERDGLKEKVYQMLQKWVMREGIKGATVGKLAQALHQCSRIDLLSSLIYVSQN

Consider `O=C(N[C@H]1COc2ccccc2-n2c1noc2=O)c1cc(Cc2ccccc2)on1` [Compound I-43, 5-benzyl-N-((4R)-1-oxo-4,5-dihydro-1H-benzo[b][1,2,4]oxadiazolo[4,3-d][1,4]oxazepin-4-yl)isoxazole-3-carboxamide], for which the IC50 at RIPK1 turned out to be 0.11 µM; in the assay with L929 cells (setting [1]) it was 10000 µM; with U937 cells (setting [2]) it was 0.205 µM.

For the compound `O=C(NC1CCc2ccccc2-n2ccnc21)c1n[nH]c(Cc2ccccc2)n1` (single isomer, unassigned) [Compound I-4], the IC50 in the assay with L929 cells (setting [3]) is 10000 µM; with U937 cells (setting [4]), 0.203 µM.

Consider `O=C(NC1CSc2cccn2-n2ccnc21)c1n[nH]c(Cc2ccccc2)n1` (racemic) [Compound I-45, (±)-5-Benzyl-N-(4,5-dihydroimidazo[1,2-d]pyrrolo[2,1-b][1,3,4]thiadiazepin-4-yl)-1H-1,2,4-triazole-3-carboxamide], for which the IC50 at RIPK1 amounted to 0.0312 µM; in the assay on L929 cells (setting [1]), 10.5 µM; with U937 cells (setting [2]), 0.0364 µM.

As to `CC(C)(O)C#Cc1ccc2c(c1)-n1nnnc1[C@@H](NC(=O)c1cc(O)n(Cc3ccccc3)n1)CO2` [Compound I-76, (R)-1-Benzyl-5-hydroxy-N-(9-(3-hydroxy-3-methylbut-1-yn-1-yl)-4,5-dihydrobenzo[b]tetrazolo[1,5-d][1,4]oxazepin-4-yl)-1H-pyrazole-3-carboxamide], the IC50 in the assay with L929 cells (setting [1]) and in the assay with U937 cells (setting [2]) was 10000 µM throughout.

For `O=C(NC1Cc2ccccc2-n2ccnc21)c1cc(Oc2ccccc2)ccn1` (racemic) [Compound I-67, (±)-N-(4,5-Dihydroimidazo[1,2-a]quinolin-4-yl)-4-phenoxypicolinamide], the values for the IC50 on RIPK1, in the assay on L929 cells (setting [1]) and in the assay on U937 cells (setting [2]) were 11.4 µM, 10000 µM and 10000 µM, respectively.

With `CN1C(=O)[C@@H](N2CCc3c(nn(Cc4ccccc4)c3Cl)C2=O)COc2cc(C#CC(C)(C)O)ccc21` [Compound I-78], the IC50 with L929 cells (setting [1]) is 0.0061 µM; in the assay on U937 cells (setting [2]) it was 0.0022 µM.

With `O=C(NC1CCc2ccccc2-n2ccnc21)c1ncn(Cc2c(Cl)cccc2Cl)n1` (single isomer, unassigned) [Compound I-13], the IC50 with L929 cells (setting [3]) was 3.38 µM; with U937 cells (setting [4]), 0.003 µM.

In the case of `O=C(NC1CCc2ccccc2-n2c1nc(Cl)c2Cl)c1cc(Cc2ccccc2)on1` (racemic) [Compound I-70, (±)-5-Benzyl-N-(1,2-dichloro-5,6-dihydro-4H-benzo[f]imidazo[1,2-a]azepin-4-yl)isoxazole-3-carboxamide], the IC50 came out at 10000 µM with L929 cells (setting [1]) and 73.4 µM with U937 cells (setting [2]).

On to `CC(C)(O)C#Cc1ccc2c(c1)-n1ccnc1C(NC(=O)c1n[nH]c(Cc3ccccc3)n1)CO2` (racemic) [Compound I-90, (±)-5-Benzyl-N-(9-(3-hydroxy-3-methylbut-1-yn-1-yl)-4,5-dihydrobenzo[b]imidazo[1,2-d][1,4]oxazepin-4-yl)-1H-1,2,4-triazole-3-carboxamide], for which the IC50 in the assay with L929 cells (setting [1]) amounted to 10000 µM; in the assay with U937 cells (setting [2]), 0.17 µM.

`O=C(NC1CCc2ccccc2-n2ccnc21)c1ncnn1Cc1c(Cl)cccc1Cl` (racemic) [Compound I-6, (±)-1-(2,6-Dichlorobenzyl)-N-(5,6-dihydro-4H-benzo[f]imidazo[1,2-a]azepin-4-yl)-1H-1,2,4-triazole-5-carboxamide]: the IC50 in the assay with L929 cells (setting [1]) was determined as 10000 µM; in the assay on U937 cells (setting [2]), 885 µM.

On to `Cc1cnc2n1-c1ccccc1CCC2NC(=O)c1n[nH]c(Cc2ccccc2)n1` (racemic) [Compound I-40, (±)-5-Benzyl-N-(1-methyl-5,6-dihydro-4H-benzo[f]imidazo[1,2-a]azepin-4-yl)-1H-1,2,4-triazole-3-carboxamide], for which the IC50 in the assay with L929 cells (setting [1]) and in the assay on U937 cells (setting [2]) was 10000 µM each time.

On to `O=C(NC1CCc2ccccc2-n2ccnc21)c1ncn(Cc2c(Cl)cccc2Cl)n1` (single isomer, unassigned) [Compound I-12], for which the IC50 with L929 cells (setting [3]) came out at 10000 µM; with U937 cells (setting [4]), 17 µM.

For `O=C(NC1CCc2ccccc2-n2ccnc21)c1ncn(Cc2c(Cl)cccc2Cl)n1` (racemic) [Compound I-7, (±)-1-(2,6-dichlorobenzyl)-N-(5,6-dihydro-4H-benzo[f]imidazo[1,2-a]azepin-4-yl)-1H-1,2,4-triazole-3-carboxamide], the results for the IC50 in the assay with L929 cells (setting [1]) and in the assay with U937 cells (setting [2]) were 12.7 µM and 0.0137 µM, respectively.

As to `CC(C)(O)C#Cc1ccc2c(c1)-n1ccnc1C(NC(=O)c1n[nH]c(Cc3ccccc3)n1)CO2` (single isomer, unassigned) [Compound I-92], the results for the IC50 in the assay on L929 cells (setting [1]) and in the assay with U937 cells (setting [2]) were 6 µM and 0.0676 µM, respectively.

As for `CC(C)(O)C#Cc1ccc2c(c1)-n1ccnc1[C@@H](NC(=O)c1n[nH]c(Cc3ccccc3)n1)CC2` [Compound I-82, (S)-5-Benzyl-N-(9-(3-hydroxy-3-methylbut-1-yn-1-yl)-5,6-dihydro-4H-benzo[f]imidazo[1,2-a]azepin-4-yl)-1H-1,2,4-triazole-3-carboxamide], the figures for the IC50 in the assay with L929 cells (setting [1]) and in the assay on U937 cells (setting [2]) were 5.29 µM and 0.0084 µM, respectively.

Take `O=C(NC1CCc2ccccc2-n2ccnc21)c1n[nH]c(Cc2ccccc2)n1` (racemic) [Compound I-1, (±)-5-Benzyl-N-(5,6-dihydro-4H-benzo[f]imidazo[1,2-a]azepin-4-yl)-1H-1,2,4-triazole-3-carboxamide]: the figures for the IC50 in the assay with L929 cells (setting [1]) and with U937 cells (setting [2]) were 10000 µM and 0.376 µM, respectively.

In the case of `O=C(NC1CCc2ccccc2-n2ccnc21)c1n[nH]c(Cc2ccccc2)n1` (single isomer, unassigned) [Compound I-5], the IC50 in the assay with L929 cells (setting [1]) was 10000 µM; in the assay on U937 cells (setting [4]) it was 86.6 µM.

Turning to `O=C(N[C@H]1COc2ccccc2-n2nnnc21)c1ncnn1Cc1c(Cl)cccc1Cl` [Compound I-10, (R)-1-(2,6-Dichlorobenzyl)-N-(4,5-dihydrobenzo[6]tetrazolo[1,5-d][1,4]oxazepin-4-yl)-1H-1,2,4-triazole-5-carboxamide], the IC50 came to 10000 µM with L929 cells (setting [1]) and 5020 µM in the assay with U937 cells (setting [2]).

On to `CC(C)(O)C#Cc1ccc2c(c1)-n1ccnc1[C@H](NC(=O)c1n[nH]c(Cc3ccccc3)n1)CO2` [Compound I-91, (S)-5-Benzyl-N-(9-(3-hydroxy-3-methylbut-1-yn-1-yl)-4,5-dihydrobenzo[b]imidazo[1,2-d][1,4]oxazepin-4-yl)-1H-1,2,4-triazole-3-carboxamide], for which the IC50 in the assay on L929 cells (setting [1]) and in the assay on U937 cells (setting [2]) was 10000 µM each time.

`Cc1cccc(C)c1Cn1cnc(C(=O)N[C@H]2COc3ccccc3-n3nnnc32)n1` [Compound I-20, (R)—N-(4,5-Dihydrobenzo[&]tetrazolo[1,5-d][1,4]oxazepin-4-yl)-1-(2,6-dimethylbenzyl)-1H-1,2,4-triazole-3-carboxamide]: the IC50 at RIPK1 was determined as 1.87 µM; in the assay on U937 cells (setting [2]), 1.56 µM.

Take `CC(C)(O)C#Cc1ccc2c(c1)-n1ccnc1C(NC(=O)c1n[nH]c(Cc3ccccc3)n1)CC2` (racemic) [Compound I-55, (±)-5-Benzyl-N-(9-(3-hydroxy-3-methylbut-1-yn-1-yl)-5,6-dihydro-4H-benzo[f]imidazo[1,2-a]azepin-4-yl)-1H-1,2,4-triazole-3-carboxamide]: the IC50 turned out to be 9.5 µM with L929 cells (setting [1]) and 0.0206 µM with U937 cells (setting [2]).
